Test results from patent US20140066842A1, “MICRONEEDLE DEVICES AND METHODS” (3M INNOVATIVE PROPERTIES COMPANY, priority 2011, published 2014).

Tests used:
[1] = Discoloration of tissue in which local anesthetic/dose-extending component are administered; type: in vivo; settings: dose-extending component administered with local anesthetic by the microneedle devices
[2] = In vivo delivery of lidocaine to swine skin tissue from coated microneedle array (biopsy, LC/MS/MS); settings: dose-extending component delivered with lidocaine and/or prilocaine by microneedles
Protocol: The in vivo delivery of lidocaine to tissue using the coated microneedle array described above was determined using naïve young adult female mixed breed agricultural swine (Yorkshire X from Midwest Research Swine, Gibbon, Minn.). Swine with minimal skin pigmentation and weighing 10-40 kg were selected for the study. The animals were initially sedated with ketamine (10 mg/kg) and glycopyrrolate (0.011 mg/kg) was intramuscularly administered to reduce salivary, tracheobronchial, and pharyngeal secretions. Hair and dirt on pig skin at the intended application sites were removed prior to application of the microneedle array to minimize complications Skin test sites were selected based on lack of skin pigmentation and skin damage. The hair was first clipped using an electric shaver followed by shaving with a wet multi-blade disposable razor (Schick Xtreme3) and shaving cream (Gillette Foamy Regular) while the animal was under anesthesia.
A light surgical plane of anesthesia was achieved by administering 1.5-5% isoflurane in 1.5-4 L of oxygen by mask. Anesthetized animals were placed in lateral recumbency on insulated table pads. During the experiment, the animals were placed on a heated table to control body temperature at approximately 38° C. Animals were observed continuously until normal recovery was attained. […] The biopsy punch samples were stored at −20° C. until analyzed. […]
Protein precipitation was used to prepare the digested tissue samples for analysis by LC/MS/MS. […] The resulting sample was quantitatively analyzed using a Sciex API3000 triple quadrupole mass spectrometer (Applied Biosystems, Foster City, Calif.) running in positive ion mode using Turbo IonSpray interface to monitor the product ions resulting from the m/z transitions: 235→86.2 for lidocaine and 247→97.5 for mepivacaine. The linear range for lidocaine was 50.0 to 20,000 ng/mL evaluated using 1/x^2 curve weighting. […]

CNC[C@H](O)c1ccc(O)c(O)c1 [epinephrine]
Discoloration of the tissue [1]: cause discoloration of the tissue, resulting in a blue or bruised appearance

Clc1cccc(Cl)c1N=C1NCCN1 [clonidine]
Extension of the local anesthetic dose (tissue levels compared with local anesthetic without the alpha adrenergic agonist) [2]: extend the local anesthetic dose
Discoloration of the tissue [1]: without any appreciable tissue discoloration

N=C(N)NC(=O)Cc1c(Cl)cccc1Cl [guanfacine]
Extension of the local anesthetic dose (tissue levels compared with local anesthetic without the alpha adrenergic agonist) [2]: extend the local anesthetic dose
Discoloration of the tissue [1]: without any appreciable tissue discoloration

Nc1cc(Cl)c(N=C2NCCN2)c(Cl)c1 [apraclonidine]
Extension of the local anesthetic dose (tissue levels compared with local anesthetic without the alpha adrenergic agonist) [2]: extend the local anesthetic dose
Discoloration of the tissue [1]: without any appreciable tissue discoloration
